Columns and labels:
[1] = inhibitory activity against 5-hydroxytryptamine 1C receptor of pig choroid plexus using [3H]mesulergine as the radioligand
[2] = Compound was evaluated for its inhibitory activity against 5-hydroxytryptamine 1D receptor of bovine caudate using [3H]5-HT as the radioligand

Compound: FC(F)(F)c1ccc2c(c1)nc(N1CCNCC1)c1cccn12 [4-Piperazin-1-yl-7-trifluoromethyl-pyrrolo[1,2-a]quinoxaline(desmethyl-CGS-12066B)]
- IC50 [1]: 10 µM
- IC50 [2]: 0.19 µM

Reference: BindingDB's records for doi:10.1021/jm00170a007 (Pfizer, 1990)
